Assay results reported in article PMC4890880 (ACS infectious diseases, 2016).
Where a name gives a salt, the structure may show the parent alone. Read-outs that look alike come from different tables or passages of the source.

How the values were obtained:
[1] = test system: P. falciparum 3D7 parasites; test: Asexual erythrocytic-stage SYBR Green I proliferation assay, 1536-well; type: cell-based, Plasmodium falciparum
[2] = test system: Plasmodium berghei (Pb-Luc) exoerythrocytic-stage parasites; test: microbe, parasite or virus in culture; conditions: for inhibition at 10 µM: read-out: PbLuc max inhibition (%) @ 10 uM
[3] = test system: Plasmodium berghei (Pb-Luc) exoerythrocytic-stage parasites; conditions: read-out: P. berghei (liver) IC50; Table S1, validation set of 50 antimalarials; Pb-Luc
[4] = test system: Plasmodium cynomolgi exoerythrocytic-stage small (hypnozoites) and large (liver stage schizonts) parasites; test: P. cynomolgi liver assay in primary hepatocytes; conditions: Plasmodium cynomolgi, Hepatocyte
[5] = test system: HepG2-A16-CD81EGFP cells; test: cells; conditions: Homo sapiens; for IC50: HepG2, read-out: Tox IC50; for inhibition at 50 µM: HepG2, read-out: Tox max inhibition (%) @ 50 uM; for inhibition at 10 µM: HepG2, read-out: Tox max inhibition (%) @ 10 uM
[6] = biological target: QuantiLum Recombinant Luciferase (Photinus pyralis, UniProt P08659); test: Bioluminescence quantification of compound luciferase inhibition; conditions: for Emax: read-out: LucInhib max inhibition
[7] = test system: HepG2-A16-CD81EGFP cells; test: cells; conditions: Homo sapiens, HepG2, read-out: % inhibition
[8] = test system: HepG2-A16-CD81EGFP cells; test: cells; conditions: Homo sapiens, HepG2, read-out: % inhibition; remark: listed apart in the source
[9] = test system: HepG2-A16-CD81EGFP cells; conditions: human, 50 uM
[10] = Plasmodium falciparum, 3D7, read-out: P. falciparum (blood) IC50, Table S1, validation set of 50 antimalarials
[11] = read-out: P. berghei (liver) IC50, Table S1, validation set of 50 antimalarials, Pb-Luc
[12] = read-out: P. falciparum (blood) IC50, Table S1, validation set of 50 antimalarials
[13] = read-out: P. berghei (liver) IC50
[14] = read-out: % inhibition normalized to untreated control, Large
[15] = read-out: % inhibition normalized to untreated control, Small
[16] = HepG2, read-out: HepG2 Tox% @ 50 uM rep1
[17] = read-out: Inhibition% @ 50 uM rep1
[18] = read-out: Inhibition% @ 50 uM rep2
[19] = read-out: PbLuc IC50, dose response, 1/3 dilutions, max conc. 10 or 50 uM, unit inferred
[20] = read-out: PbLuc max inhibition (%) @ 50 uM
[21] = HepG2, read-out: HepG2 Tox% @ 50 uM rep2

QuantiLum Recombinant Luciferase, sequence (P08659 whole entry): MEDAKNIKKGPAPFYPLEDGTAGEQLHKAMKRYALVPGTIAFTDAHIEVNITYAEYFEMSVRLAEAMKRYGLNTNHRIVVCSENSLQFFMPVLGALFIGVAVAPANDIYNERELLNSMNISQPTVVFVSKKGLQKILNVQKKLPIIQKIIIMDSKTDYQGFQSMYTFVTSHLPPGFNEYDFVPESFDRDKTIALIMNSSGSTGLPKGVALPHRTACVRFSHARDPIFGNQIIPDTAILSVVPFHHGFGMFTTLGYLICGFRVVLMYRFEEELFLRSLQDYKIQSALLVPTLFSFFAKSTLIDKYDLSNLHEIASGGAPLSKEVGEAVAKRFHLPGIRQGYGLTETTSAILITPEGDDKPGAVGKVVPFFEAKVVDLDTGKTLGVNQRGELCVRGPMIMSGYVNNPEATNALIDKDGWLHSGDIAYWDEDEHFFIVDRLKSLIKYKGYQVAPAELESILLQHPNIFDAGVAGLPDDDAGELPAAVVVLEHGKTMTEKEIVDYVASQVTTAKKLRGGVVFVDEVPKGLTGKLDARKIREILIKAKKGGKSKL

## CCCCN(CCCC)CCC(O)c1cc2c(Cl)cc(Cl)cc2c2cc(C(F)(F)F)ccc12 (centres unmarked) [Halofantrine, reference compound]
[1]; [10]
  IC50: 0.0015 µM
[2]; [11]
  IC50: 2.84 µM

## Nc1ccc(S(=O)(=O)c2ccc(N)cc2)cc1 [Dapsone, reference compound]
[1]; [10]
  IC50: > 62.5 µM
[2]; [11]
  IC50: 2.44 µM

## CCCCN(CCCC)CC(O)c1cc(Cl)cc2c1-c1ccc(Cl)cc1/C2=C/c1ccc(Cl)cc1 (centres unmarked) [Lumefantrine, reference compound]
[1]; [10]
  IC50: 0.0073 µM
[2]; [11]
  IC50: > 12.5 µM

## C[C@]12CC[C@H](OS(=O)(=O)O)CC1=CC[C@@H]1[C@@H]2CC[C@]2(C)C(=O)CC[C@@H]12 [Dehydroepiandrosterone sulphate, reference compound]
[1]; [12]
  IC50: > 62.5 µM
[3]
  IC50: > 12.5 µM

## COc1ncnc(NS(=O)(=O)c2ccc(N)cc2)c1OC [Sulfadoxine, reference compound]
[1]; [10]
  IC50: > 62.5 µM
[2]; [11]
  IC50: 0.074 µM

## COc1cc(C)c2c(Oc3cccc(C(F)(F)F)c3)c(OC)cc(NC(C)CCCN)c2n1 (centres unmarked) [Tafenoquine, reference compound]
[1]; [10]
  IC50: 2.82 µM
[2]; [11]
  IC50: 5.86 µM

## COc1cc(N[C@H](C)CCCN)c2nccc(C)c2c1Oc1ccc(Cl)c(Cl)c1 [NPC-1161B, reference compound]
[1]; [12]
  IC50: 1.32 µM
[3]
  IC50: 3.55 µM

## Nc1ccc(S(=O)(=O)Nc2ncccn2)cc1 [Sulfadiazine, reference compound]
[1]; [10]
  IC50: > 62.5 µM
[2]; [13]
  IC50: 0.016 µM

## O=C(Nc1ccc(-c2nc3cc(NC(=O)c4ccc(Cl)cc4)ccc3[nH]2)cc1)c1ccc(Cl)cc1 [MMV006962]
[4]; [14]
  inhibition at 0.1 µM: 34%
  inhibition at 1 µM: 25%
  inhibition at 10 µM: 10%
[4]; [15]
  inhibition at 0.1 µM: -8%
  inhibition at 1 µM: 11%
  inhibition at 10 µM: 17%
[5]; [16]
  cytotoxicity at 50 µM: 96%
[5]
  IC50: 9.2 µM
  inhibition at 50 µM: 99%
[2]; [17]
  inhibition at 50 µM: 103%
[2]; [18]
  inhibition at 50 µM: 103%
[2]; [19]
  IC50: 0.501 µM
[2]; [20]
  inhibition at 50 µM: 99%

## Trans-Mirincamycin [reference compound]
[1]; [12]
  IC50: > 10 µM
[3]
  IC50: > 12.5 µM

## CCN(CC)Cc1cc(Nc2ccnc3cc(Cl)ccc23)ccc1O [Amodiaquine, reference compound]
[1]; [10]
  IC50: > 62.5 µM
[2]; [11]
  IC50: 1.59 µM

## Cc1cc2nc3c(=O)[nH]c(=O)nc-3n(C[C@H](O)[C@H](O)[C@H](O)CO)c2cc1C [Riboflavin, reference compound]
[1]; [10]
  IC50: > 62.5 µM
[2]; [11]
  IC50: > 12.5 µM

## CC[C@H]1OC(=O)[C@H](C)[C@@H](O[C@H]2C[C@@](C)(OC)[C@@H](O)[C@H](C)O2)[C@H](C)[C@@H](O[C@@H]2O[C@H](C)C[C@H](N(C)C)[C@H]2O)[C@](C)(O)C[C@@H](C)CN(C)[C@H](C)[C@@H](O)[C@]1(C)O [Azithromycin, reference compound]
[1]; [10]
  IC50: 0.257 µM
[2]; [11]
  IC50: > 12.5 µM

## N=C(N)c1ccc(OCCCCCOc2ccc(C(=N)N)cc2)cc1 [Pentamidine, reference compound]
[1]; [10]
  IC50: 0.0005 µM
[2]; [11]
  IC50: 0.286 µM

## CC(C)NC(=N)NC(=N)Nc1ccc(Cl)c(Cl)c1 [Chlorproguanil HCL, reference compound]
[1]; [12]
  IC50: 4.72 µM
[3]
  IC50: 0.5 µM

## CCCCC[C@H]1CN[C@H](C(=O)N[C@H]([C@H]2O[C@H](SC)[C@H](O)[C@@H](O)[C@H]2O)[C@@H](C)Cl)C1 (relative stereo) [Cis-Mirincamycin, reference compound]
[1]; [12]
  IC50: 7.56 µM
[3]
  IC50: > 12.5 µM

## C=C(NC(=O)C(=C)NC(=O)c1csc(C2=N[C@@H]3c4csc(n4)[C@H]4NC(=O)c5csc(n5)[C@H]([C@](C)(O)[C@@H](C)O)NC(=O)[C@H]5CSC(=N5)/C(=C/C)NC(=O)[C@H]([C@@H](C)O)NC(=O)c5csc(n5)[C@]3(CC2)NC(=O)[C@H](C)NC(=O)C(=C)NC(=O)[C@H](C)NC(=O)[C@H]([C@@H](C)CC)N[C@@H]2C=Cc3c([C@H](C)O)cc(nc3[C@H]2O)C(=O)O[C@@H]4C)n1)C(N)=O [Thiostrepton, reference compound]
[1]; Plasmodium falciparum, 3D7, read-out: P. falciparum (blood) IC50
  IC50: 1.91 µM
[2]; [13]
  IC50: 3.13 µM

## C=C[C@H]1C[N@@]2CC[C@H]1C[C@H]2[C@H](O)c1ccnc2ccc(OC)cc12 [Quinine sulfate dihydrate, reference compound]
[1]; [10]
  IC50: 0.0123 µM
[2]; [11]
  IC50: > 12.5 µM

## CCN(CC)CCCNc1ccnc2cc(Cl)ccc12 [AQ-13, reference compound]
[1]; [12]
  IC50: 0.0087 µM
[3]
  IC50: 3.16 µM

## CC(C)(C)NCc1cc(Nc2ccnc3cc(Cl)ccc23)c2c(c1O)CCCC2 [Naphthoquine, reference compound]
[1]; [12]
  IC50: 0.0114 µM
[3]
  IC50: 0.391 µM

## [H]/N=C(\N/C(=N/[H])Nc1ccc(Cl)cc1)NC(C)C [Proguanil HCL, reference compound]
[1]; [10]
  IC50: 6.24 µM
[2]; [11]
  IC50: 4.56 µM

## C[C@H]1[C@H](OC(=O)CCC(=O)O)O[C@@H]2O[C@@]3(C)CC[C@H]4[C@H](C)CC[C@@H]1[C@@]24OO3 [Artesunate, reference compound]
[1]; [10]
  IC50: 0.0009 µM
[2]; [11]
  IC50: 0.246 µM

## O=CN(O)CCCP(=O)(O)O [Fosmidomycin, reference compound]
[1]; [10]
  IC50: > 10 µM
[2]; [11]
  IC50: > 12.5 µM

## COc1ccccc1CNC(=O)CCn1c(=O)[nH]c2ccsc2c1=O [MMV019066]
[4]; [14]
  inhibition at 0.1 µM: 3%
  inhibition at 1 µM: -2%
  inhibition at 10 µM: 5%
[4]; [15]
  inhibition at 0.1 µM: 10%
  inhibition at 1 µM: 11%
  inhibition at 10 µM: 3%
[6]
  IC50: > 20 µM
  Emax: 21%
[5]; [16]
  cytotoxicity at 50 µM: -14%
[5]; [21]
  cytotoxicity at 50 µM: -5.32%
[5]
  IC50: > 10 µM
  inhibition at 10 µM: -2.17%
[2]; [17]
  inhibition at 50 µM: 94%
[2]; [18]
  inhibition at 50 µM: 95%
[2]; [19]
  IC50: 0.0561 µM
[2]
  inhibition at 10 µM: 104%

## OC(c1cc(C(F)(F)F)nc2c(C(F)(F)F)cccc12)C1CCCCN1 (racemic) [Mefloquine (Racemic), Mefloquine, reference compound]
[1]; [12]
  IC50: < 0.0004 µM
[3]
  IC50: 3.06 µM

## O=C(Nc1cccc(C(F)(F)F)c1)c1cc(Cl)ccc1O [MMV665807]
[4]; [14]
  inhibition at 0.1 µM: 6%
  inhibition at 1 µM: 10%
  inhibition at 10 µM: 12%
[4]; [15]
  inhibition at 0.1 µM: 17%
  inhibition at 1 µM: 34%
  inhibition at 10 µM: 24%
[5]; [16]
  cytotoxicity at 50 µM: 98%
[5]; [21]
  cytotoxicity at 50 µM: 99%
[5]
  IC50: 0.91 µM
  inhibition at 50 µM: 94%
[2]; [17]
  inhibition at 50 µM: 103%
[2]; [18]
  inhibition at 50 µM: 103%
[2]; [19]
  IC50: 0.21 µM
[2]; [20]
  inhibition at 50 µM: 101%

## COCCN(C(=O)Cc1cccs1)C(C(=O)NCc1ccc(OC)cc1)c1ccc(C(C)C)cc1 (centres unmarked) [MMV666105]
[7]
  inhibition at 50 µM: 99.9%
[8]
  inhibition at 50 µM: 98.8%
[2]; [17]
  inhibition at 50 µM: 104%
[2]; [18]
  inhibition at 50 µM: 105%
[9]
  HepG2 Tox% @ 50 uM rep2: 100%

## COc1ccc(C2=C(c3ccc(OC)cc3)C3(c4ccccc4)C(=O)C2(c2ccccc2)C2C(=O)N(c4ccc(C)cc4)C(=O)C23)cc1 (centres unmarked) [MMV666101]
[4]; [14]
  inhibition at 0.1 µM: 7%
  inhibition at 1 µM: 11%
  inhibition at 10 µM: 17%
[4]; [15]
  inhibition at 0.1 µM: 4%
  inhibition at 1 µM: 19%
  inhibition at 10 µM: 11%
[6]
  IC50: > 20 µM
  Emax: 18%
[5]; [16]
  cytotoxicity at 50 µM: 0.41%
[5]; [21]
  cytotoxicity at 50 µM: 3.59%
[5]
  IC50: > 10 µM
  inhibition at 10 µM: 1.34%
[2]; [17]
  inhibition at 50 µM: 96%
[2]; [18]
  inhibition at 50 µM: 100%
[2]; [19]
  IC50: 0.201 µM
[2]
  inhibition at 10 µM: 106%

## CC(=O)N[C@@H](C(=O)O)C(C)(C)S [N-acetyl-D-penicillamine, reference compound]
[1]; [12]
  IC50: > 62.5 µM
[3]
  IC50: > 12.5 µM

## CN(C)c1ccc(-c2nc3cc(N)ccc3[nH]2)cc1 [MMV666102]
[7]
  inhibition at 50 µM: 32.6%
[8]
  inhibition at 50 µM: 29.4%
[2]; [17]
  inhibition at 50 µM: 97%
[2]; [18]
  inhibition at 50 µM: 94%
[9]
  HepG2 Tox% @ 50 uM rep1: 29%

## CN1CCN(c2c3c(c(C#N)c4nc5ccccc5n24)CCC3)CC1 [MMV008127]
[7]
  inhibition at 50 µM: -9.23%
[8]
  inhibition at 50 µM: -6.02%
[2]; [17]
  inhibition at 50 µM: 28%
[2]; [18]
  inhibition at 50 µM: -16%
[9]
  HepG2 Tox% @ 50 uM rep2: -9%

## C[C@H]1c2cccc(O)c2C(O)=C2C(=O)[C@]3(O)C(O)=C(C(N)=O)C(=O)[C@@H](N(C)C)[C@@H]3[C@@H](O)[C@@H]21 [Doxycyclin, reference compound]
[1]; [12]
  IC50: 8.82 µM
[3]
  IC50: 11.6 µM

## COc1ccc(C(=O)Nc2ccc(Cl)cc2C(=O)Nc2ccncc2)cc1 [MMV665799]
[7]
  inhibition at 50 µM: -10.4%
[8]
  inhibition at 50 µM: -8.2%
[2]; [17]
  inhibition at 50 µM: 67%
[2]; [18]
  inhibition at 50 µM: 39%
[9]
  HepG2 Tox% @ 50 uM rep1: -8%
  HepG2 Tox% @ 50 uM rep2: -10%

## COc1cc(Cc2cnc(N)nc2N)cc(OC)c1OC [Trimethoprim]
[1]; [10]
  IC50: 5.64 µM

## Cc1cc(NS(=O)(=O)c2ccc(N)cc2)no1 [Sulfamethoxazole]
[1]; [10]
  IC50: > 10 µM

## CCc1nc(N)nc(N)c1OCCCOc1ccccc1CCC(=O)O [P218.HCl, reference compound]
[1]; [12]
  IC50: 0.0004 µM
[3]
  IC50: 0.000916 µM
